Experimental data taken from ChEMBL document CHEMBL4433219, “EC18 as a Tool To Understand the Role of HCN4 Channels in Mediating Hyperpolarization-Activated Current in Tissues” (ACS Med Chem Lett, 2019).

How the values were obtained:
[1] = molecular target: T1, Potassium/sodium hyperpolarization-activated cyclic nucleotide-gated channel 2 (Mus musculus, UniProt O88703); test: Inhibition of mouse HCN2 expressed in HEK293 cells assessed as reduction in hyperpolarization activated current at holding potential of -80 mV by patch clamp assay; format: cell-based
T1 sequence (O88703 whole entry): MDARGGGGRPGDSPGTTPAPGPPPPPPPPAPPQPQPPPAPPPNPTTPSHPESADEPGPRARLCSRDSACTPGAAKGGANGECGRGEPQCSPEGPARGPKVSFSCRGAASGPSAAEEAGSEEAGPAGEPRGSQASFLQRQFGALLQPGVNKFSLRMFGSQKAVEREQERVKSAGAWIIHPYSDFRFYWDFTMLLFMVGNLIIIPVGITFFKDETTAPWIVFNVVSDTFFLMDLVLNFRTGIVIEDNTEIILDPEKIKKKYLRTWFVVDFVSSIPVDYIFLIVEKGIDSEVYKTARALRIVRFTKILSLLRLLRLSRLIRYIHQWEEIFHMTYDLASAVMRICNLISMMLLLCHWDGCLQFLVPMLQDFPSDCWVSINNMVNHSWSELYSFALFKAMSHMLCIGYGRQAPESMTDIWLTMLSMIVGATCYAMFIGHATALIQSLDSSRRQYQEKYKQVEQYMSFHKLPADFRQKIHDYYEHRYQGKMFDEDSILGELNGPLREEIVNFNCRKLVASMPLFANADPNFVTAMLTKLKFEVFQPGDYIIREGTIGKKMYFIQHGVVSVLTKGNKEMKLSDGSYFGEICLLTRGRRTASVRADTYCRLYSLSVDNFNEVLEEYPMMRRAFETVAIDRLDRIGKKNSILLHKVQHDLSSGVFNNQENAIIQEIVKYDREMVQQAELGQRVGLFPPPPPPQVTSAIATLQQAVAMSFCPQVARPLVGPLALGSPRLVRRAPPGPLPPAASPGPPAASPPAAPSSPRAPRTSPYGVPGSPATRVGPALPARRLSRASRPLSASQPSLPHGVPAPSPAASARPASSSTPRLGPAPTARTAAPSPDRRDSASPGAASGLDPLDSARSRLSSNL

[2] = Selectivity ratio of EC50 for human HCN1 to EC50 for mouse HCN4
[3] = Selectivity ratio of EC50 for human HCN2 to EC50 for mouse HCN4
[4] = test system: Cardiac muscle of left ventricle; test: (§1) Effect on cardiac electrophysiological profile in Mongrel perfused dog heart left ventricular muscle stimulated at basic cycle length of 1000 milliseconds assessed as conduction time at 10 uM measured after 25 mins by glass capillary microelectrode based electrophysiology assay (reference value: 4.8 +/- 0.60 milliseconds); format: functional, Canis lupus familiaris
[5] = test system: Cardiac muscle of left ventricle; test: as §1, with “maximum diastolic potential” for “conduction time”, “-83.8” for “4.8”, “2.28 mV)” for “0.60 milliseconds)”; format: functional, Canis lupus familiaris
[6] = test system: Cardiac muscle of left ventricle; test: as §1, with “as action potential amplitude” for “as conduction time”, “at 1” for “at 10”, “value: 104.1” for “value: 4.8”, “+/- 2.7 mV)” for “+/- 0.60 milliseconds)”; format: functional, Canis lupus familiaris
[7] = test system: Cardiac muscle of left ventricle; test: as §1, with “action potential amplitude” for “conduction time”, “104.1” for “4.8”, “2.7 mV)” for “0.60 milliseconds)”; format: functional, Canis lupus familiaris
[8] = test system: Cardiac muscle of left ventricle; test: as §1, with “Vmax” for “conduction time”, “244.6” for “4.8”, “30.87 V/s)” for “0.60 milliseconds)”; format: functional, Canis lupus familiaris
[9] = test system: Cardiac muscle of left ventricle; test: as §1, with “as action potential” for “as conduction”, “time duration” for “time”, “at 90% of repolarization at 1” for “at 10”, “value: 212.5” for “value: 4.8”, “+/- 16.25” for “+/- 0.60”; format: functional, Canis lupus familiaris
[10] = test system: Cardiac muscle of left ventricle; test: as §1, with “as action potential” for “as conduction”, “time duration” for “time”, “at 75% of repolarization at 1” for “at 10”, “value: 199.7” for “value: 4.8”, “+/- 16.87” for “+/- 0.60”; format: functional, Canis lupus familiaris
[11] = test system: Cardiac muscle of left ventricle; test: as §1, with “action potential” for “conduction”, “time duration at 50% of repolarization” for “time”, “176” for “4.8”, “16.36” for “0.60”; format: functional, Canis lupus familiaris
[12] = test system: Cardiac muscle of left ventricle; test: as §1, with “as action potential” for “as conduction”, “time duration” for “time”, “at 25% of repolarization at 1” for “at 10”, “value: 131.7” for “value: 4.8”, “+/- 13.1” for “+/- 0.60”; format: functional, Canis lupus familiaris
[13] = molecular target: T2, Potassium/sodium hyperpolarization-activated cyclic nucleotide-gated channel 4 (Mus musculus, UniProt O70507); test: Inhibition of HCN4 in C57BL/6J mouse thalamocortical relay neuron assessed as reduction in hyperpolarization current at holding potential of -120 mV by whole-cell patch clamp assay
T2 sequence (O70507 whole entry): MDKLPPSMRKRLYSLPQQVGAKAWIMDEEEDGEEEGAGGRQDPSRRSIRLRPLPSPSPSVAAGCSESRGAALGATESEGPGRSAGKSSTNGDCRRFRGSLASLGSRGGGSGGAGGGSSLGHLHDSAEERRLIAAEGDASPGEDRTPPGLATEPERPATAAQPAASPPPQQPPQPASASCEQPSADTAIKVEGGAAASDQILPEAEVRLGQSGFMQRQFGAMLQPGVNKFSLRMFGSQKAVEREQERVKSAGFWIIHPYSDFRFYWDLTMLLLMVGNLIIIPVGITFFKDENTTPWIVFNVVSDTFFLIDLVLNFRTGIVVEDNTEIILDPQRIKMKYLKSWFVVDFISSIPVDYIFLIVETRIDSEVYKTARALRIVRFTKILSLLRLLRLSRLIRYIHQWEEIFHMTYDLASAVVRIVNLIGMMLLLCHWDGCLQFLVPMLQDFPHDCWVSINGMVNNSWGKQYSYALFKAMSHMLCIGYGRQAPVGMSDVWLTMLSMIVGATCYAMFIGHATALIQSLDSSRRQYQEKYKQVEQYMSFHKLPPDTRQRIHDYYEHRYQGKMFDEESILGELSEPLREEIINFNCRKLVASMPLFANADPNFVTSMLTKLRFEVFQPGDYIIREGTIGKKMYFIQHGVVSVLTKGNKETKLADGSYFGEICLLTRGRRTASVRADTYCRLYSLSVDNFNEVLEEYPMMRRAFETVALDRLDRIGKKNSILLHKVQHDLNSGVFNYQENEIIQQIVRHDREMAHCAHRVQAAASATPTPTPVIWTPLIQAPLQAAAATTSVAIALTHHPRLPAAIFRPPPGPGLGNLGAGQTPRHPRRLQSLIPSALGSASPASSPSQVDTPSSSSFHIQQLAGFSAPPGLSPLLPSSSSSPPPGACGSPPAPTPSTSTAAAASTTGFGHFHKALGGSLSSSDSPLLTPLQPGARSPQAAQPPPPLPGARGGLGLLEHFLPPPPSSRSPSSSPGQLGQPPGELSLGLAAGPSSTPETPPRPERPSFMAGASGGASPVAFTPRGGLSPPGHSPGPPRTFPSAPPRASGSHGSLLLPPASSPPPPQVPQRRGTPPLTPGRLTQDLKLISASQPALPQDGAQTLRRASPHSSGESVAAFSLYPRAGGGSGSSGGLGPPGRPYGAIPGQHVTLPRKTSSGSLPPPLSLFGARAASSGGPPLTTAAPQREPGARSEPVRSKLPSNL

[14] = Negative chronotropic activity at HCN4 in guinea-pig spontaneously beating isolated atria; conditions: Cavia porcellus

- EC50 [1]: 19.3 µM
- Ratio EC50 [2]: 5
- Ratio EC50 [3]: 5
- EC50 [13]: 11 µM
- IC50 [14]: 9.9 µM
SMILES: COc1ccc(CCN(C)[C@@H]2CCC[C@H](N3CCc4cc(OC)c(OC)cc4CC3=O)C2)cc1OC (racemic)
- Time [4]: 5 ms
- Activity [5]: -83 mV
- Activity [6]: 103.1 mV
- Activity [7]: 102.3 mV
- Activity [8]: 140.6 V/s
- Time [9]: 204.9 ms
- Time [10]: 191.9 ms
- Time [11]: 179.9 ms
- Time [12]: 121.6 ms
